Data reported in patent US20050171172A1, “Amide derivatives as PDGFR modulators” (Ambit Biosciences Corporation, priority 2003, published 2005).

What follows are compounds tested against T1, human PDGFR-β (Homo sapiens, UniProt P09619) (assay: phage-display-based competitive binding assay for PDGFR-β). Conditions: T7 phage displaying human PDGFR-β; Kd class; read-out: Binding Assay:PDGFRB (DKIN).
T1 construct: made in house
Procedure: The term “ND” represents non-determined values.
Kd values for the interactions between PDGFR-β and candidate small molecule ligands were measured by a phage-display-based competitive binding assay that is described in detail in U.S. Ser. No. 10/406,797 filed 2 Apr. 2003 and incorporated herein by reference. Briefly, T7 phage displaying human PDGFR-β were incubated with an affinity matrix coated with known PDGFR-β inhibitor in the presence of various concentrations of the soluble competitor molecules. […] The Kd for the interaction between the soluble competitor molecule and PDGFR-β is equal to the concentration of soluble competitor molecule that causes a 50% reduction in the number of phage recovered in the eluate compared to a control sample lacking soluble competitor. Kd values for the interaction between PDGFR-β and several small molecules are shown in below: […]

T1 sequence (P09619 33-1106): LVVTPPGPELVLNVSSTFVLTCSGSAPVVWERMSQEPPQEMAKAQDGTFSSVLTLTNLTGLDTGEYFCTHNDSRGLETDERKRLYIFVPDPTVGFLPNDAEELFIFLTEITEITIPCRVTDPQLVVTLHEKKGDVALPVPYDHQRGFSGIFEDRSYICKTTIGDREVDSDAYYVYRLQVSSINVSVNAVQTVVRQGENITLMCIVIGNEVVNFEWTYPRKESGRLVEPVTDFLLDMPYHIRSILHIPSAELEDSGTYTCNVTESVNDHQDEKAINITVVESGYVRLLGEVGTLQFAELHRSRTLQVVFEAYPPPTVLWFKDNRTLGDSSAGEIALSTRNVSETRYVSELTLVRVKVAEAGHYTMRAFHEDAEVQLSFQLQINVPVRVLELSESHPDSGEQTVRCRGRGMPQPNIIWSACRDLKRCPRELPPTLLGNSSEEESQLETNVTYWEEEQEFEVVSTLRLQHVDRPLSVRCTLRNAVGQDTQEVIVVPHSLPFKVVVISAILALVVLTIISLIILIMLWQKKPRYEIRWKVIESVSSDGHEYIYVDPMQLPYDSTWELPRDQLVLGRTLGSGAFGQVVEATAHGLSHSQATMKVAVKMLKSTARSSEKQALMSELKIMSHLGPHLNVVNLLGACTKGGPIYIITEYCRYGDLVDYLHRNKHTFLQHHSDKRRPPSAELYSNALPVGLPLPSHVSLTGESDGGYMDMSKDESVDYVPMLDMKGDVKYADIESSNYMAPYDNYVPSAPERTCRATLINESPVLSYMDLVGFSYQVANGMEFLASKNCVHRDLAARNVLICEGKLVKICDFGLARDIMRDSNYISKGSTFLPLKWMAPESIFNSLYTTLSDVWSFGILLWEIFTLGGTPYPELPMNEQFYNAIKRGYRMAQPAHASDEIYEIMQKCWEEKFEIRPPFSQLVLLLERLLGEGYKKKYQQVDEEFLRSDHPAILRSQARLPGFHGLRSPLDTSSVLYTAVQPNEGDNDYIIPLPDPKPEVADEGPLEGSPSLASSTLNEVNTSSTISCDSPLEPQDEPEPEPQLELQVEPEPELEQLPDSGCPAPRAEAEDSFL

Row | Structure (SMILES) | Kd [nM]
1 | COc1cccc2cc([C@H](C)C(=O)Nc3cc(C(C)(C)C)on3)ccc12 | 100 to 1000
2 | CC(C)Cc1ccc(C(C)C(=O)Nc2ccnn2-c2ccccc2)cc1 (stereo not shown) | > 10000
3 | Cc1csc(NC(=O)Cc2ccc(OCc3ccccc3)cc2)n1 | > 10000
4 | Cc1cc(C)n(C(=O)Nc2ccc(Cl)cc2)n1 | > 10000
5 | Cc1cnc(NC(=O)Cc2ccc(OCc3ccccc3)cc2)s1 | > 10000
6 | O=C(Cc1ccc(OCc2ccccc2)cc1)Nc1nc(-c2ccc(Cl)cc2)cs1 | > 10000
7 | O=C(Cc1ccc(OCc2ccccc2)cc1)Nc1nc2ccccc2s1 | > 10000
8 | CC(C)(C)c1cc(NC(=O)Cc2ccc(NC(=O)c3ccc4cnccc4n3)cc2)no1 | < 100
9 | COc1cccc2sc(NC(=O)Cc3ccc(OCc4ccccc4)cc3)nc12 | > 10000
10 | CC(C)(C)c1cc(NC(=O)Cc2ccc(NC(=O)c3cccc4cccnc34)cc2)no1 | 1000 to 10000
11 | CC(C)(C)c1cc(NC(=O)Cc2ccc(NC(=O)c3cnc4ccccc4c3)cc2)no1 | < 100

The remaining lines, values ahead:

Row | Kd [nM] | Structure (SMILES)
12 | < 100 | COc1ccc(CC(=O)Nc2cc(C(C)(C)C)no2)cc1
13 | < 100 | CC(C)(C)c1cc(NC(=O)Cc2ccc(Br)cc2)on1
14 | < 100 | CC(C)(C)c1cc(NC(=O)Cc2ccc(OCc3ccccc3)cc2)on1
15 | 1000 to 10000 | COc1ccc(SC(=O)Nc2cc(C(C)(C)C)on2)cc1
16 | > 10000 | CC(C)(C)c1cc(NC(=O)Sc2ccc(Cl)cc2)no1
17 | 100 to 1000 | CC(C)(C)c1cc(NC(=O)Cc2ccc(F)cc2)on1
18 | 100 to 1000 | CC(C)(C)c1cc(NC(=O)Cc2ccc(Cl)cc2)on1
19 | > 10000 | CC(C)(C)c1cc(NC(=O)Cc2ccc(O)cc2)no1
20 | 100 to 1000 | Cc1nn(C)c(Cl)c1C(=O)Nc1ccc(CC(=O)Nc2cc(C(C)(C)C)on2)cc1
21 | < 100 | CSc1ncc(Br)c(C(=O)Nc2ccc(CC(=O)Nc3cc(C(C)(C)C)on3)cc2)n1
22 | < 100 | Cn1cc(C(=O)Nc2ccc(CC(=O)Nc3cc(C(C)(C)C)on3)cc2)c2ccccc21
